These results are taken from ChEMBL document CHEMBL5137018, “Pyranochromones with Anti-Inflammatory Activities in Arthritis from Calophyllum membranaceum” (J Nat Prod, 2022).

The CC50 is the concentration at which the toxic effect on the cells reaches its halfway point. One may read the pIC50 as −log10 of the IC50, conventionally taken in molar units.

The subject of assay [1] is RAW264.7. Nature of the assay: Cytotoxicity against mouse RAW264.7 cells assessed as effect on cell viability measured after 12 hrs by MTT assay. The class given is functional. On the technique in general: Tetrazolium assays rely on reduction of a dye to a coloured formazan, in cell work by metabolically active cells.
The subject of assay [2] is RAW264.7. Nature of the assay: Antiinflammatory activity in mouse RAW264.7 assessed as inhibition of LPS-induced NO production preincubated for 12 hrs followed by LPS stimulation and measured after 6 hrs by Griess reagent based assay. The class given is functional, cell-based. Background: The Griess reaction detects nitrite, a stable product of nitric oxide.
The target in assay [3] is T1, Toll-like receptor 4 (Mus musculus) (UniProt Q9QUK6).
T1 sequence (whole entry): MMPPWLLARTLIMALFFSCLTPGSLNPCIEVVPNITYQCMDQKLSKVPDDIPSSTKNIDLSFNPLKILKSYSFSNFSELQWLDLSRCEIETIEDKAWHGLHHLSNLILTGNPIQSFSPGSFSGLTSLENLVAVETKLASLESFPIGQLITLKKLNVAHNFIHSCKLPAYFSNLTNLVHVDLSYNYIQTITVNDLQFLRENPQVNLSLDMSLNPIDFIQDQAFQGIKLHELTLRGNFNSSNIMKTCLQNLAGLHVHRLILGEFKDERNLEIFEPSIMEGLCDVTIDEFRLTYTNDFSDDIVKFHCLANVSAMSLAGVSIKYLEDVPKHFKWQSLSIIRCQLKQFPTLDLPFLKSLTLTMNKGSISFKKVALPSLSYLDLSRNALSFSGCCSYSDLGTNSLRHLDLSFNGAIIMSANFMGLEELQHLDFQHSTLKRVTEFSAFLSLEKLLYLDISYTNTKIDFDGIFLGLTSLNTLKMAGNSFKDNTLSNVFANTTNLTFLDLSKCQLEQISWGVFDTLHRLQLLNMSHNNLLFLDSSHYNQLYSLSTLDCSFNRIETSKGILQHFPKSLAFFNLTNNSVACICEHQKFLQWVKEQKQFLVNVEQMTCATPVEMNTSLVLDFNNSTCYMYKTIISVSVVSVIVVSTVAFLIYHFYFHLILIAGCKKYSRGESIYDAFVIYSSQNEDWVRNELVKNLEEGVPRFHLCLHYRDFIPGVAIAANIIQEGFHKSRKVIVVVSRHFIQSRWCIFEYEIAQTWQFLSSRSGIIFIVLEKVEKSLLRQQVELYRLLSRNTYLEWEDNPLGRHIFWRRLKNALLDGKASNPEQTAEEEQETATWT
Nature of the assay: Binding affinity to mouse TLR4 in RAW264.7 cells assessed as thermal stabilization at 1 uM and measured after 12 hrs by CETSA analysis. The assay is classed as cell-based.

Assay [4] deals with RAW264.7. Kind of assay: Antiinflammatory activity in mouse RAW264.7 cells assessed as increase in IKK alpha phosphorylation at 0.1 to 5 uM preincubated for 12 hrs followed by LPS stimulation and measured after 24 hrs by western blot assay. The assay is classed as functional, cell-based. The settings on record: dose 0.1-5 µM, time 36.0 hrs, DDE = dose-dependent effect. A general note: In western blotting, separated proteins are transferred to a membrane and probed.

The subject of assay [5] is RAW264.7. Kind of assay: Antiinflammatory activity in mouse RAW264.7 cells assessed as increase in IKK beta phosphorylation at 0.1 to 5 uM preincubated for 12 hrs followed by LPS stimulation and measured after 24 hrs by western blot assay. The class given is functional, cell-based. To be noted: dose 0.1-5 µM, time 36.0 hrs, DDE = dose-dependent effect.
For assay [6], the system named is Mus musculus. Nature of the assay: Antiinflammatory activity in carrageenan-induced acute arthritis ICR mouse assessed as reduction in paw swelling at 10 to 20 mg/kg, po for 10 days followed by carrageenan stimulation and measured upto 6 hrs by vernier caliper method. To be noted: dose 10-20 mg/kg, time 10.0 day. The class given is functional, organism-based.
For assay [7], the system named is RAW264.7. Nature of the assay: Antiinflammatory activity in mouse RAW264.7 cells assessed as suppression of NF-kappa B expression at 0.1 to 5 uM preincubated for 12 hrs followed by LPS stimulation and measured after 24 hrs by western blot assay. The assay is classed as functional, cell-based. The settings on record: dose 0.1-5 µM, time 36.0 hrs, DDE = dose-dependent effect.

Assay [8] relates to Mus musculus. Nature of the assay: Antiinflammatory activity in carrageenan-induced acute arthritis ICR mouse assessed as downregulation of IL-4 secretion in plasma measured at 10 to 20 mg/kg, po for 10 days followed by carrageenan stimulation and measured after 6 hrs by ELISA. The class given is functional, organism-based. To be noted: dose 10-20 mg/kg, time 10.0 day, DDE = dose-dependent effect.

The test system of assay [9] is RAW264.7. Kind of assay: Antiinflammatory activity in LPS induced mouse RAW264.7 cells assessed as downregulation of IL-2 secretion at 0.1 to 5 uM incubated for 12 hrs followed by LPS stimulation and measured after 24 hrs by ELISA. The assay is classed as functional, cell-based. To be noted: dose 0.1-5 µM, time 36.0 hrs, DDE = dose-dependent effect.
The subject of assay [10] is Mus musculus. Nature of the assay: Antiinflammatory activity in carrageenan-induced acute arthritis ICR mouse assessed as reduction in relative neutrophil to lymphocyte ratio at 20 mg/kg, po for 10 days followed by carrageenan stimulation and measured upto 6 hrs by hematology analyzer. The settings on record: time 10 day. The assay is classed as functional.
Assay [11] relates to Mus musculus. Nature of the assay: Antiinflammatory activity in carrageenan-induced acute arthritis ICR mouse assessed as reduction in relative neutrophil to lymphocyte ratio at 10 mg/kg, po for 10 days followed by carrageenan stimulation and measured upto 6 hrs by hematology analyzer. The assay is classed as functional. The settings on record: time 10 day.
Assay [12] concerns RAW264.7. Nature of the assay: Antiinflammatory activity in LPS induced mouse RAW264.7 cells assessed as downregulation of IL-5 secretion at 0.1 to 5 uM incubated for 12 hrs followed by LPS stimulation and measured after 24 hrs by ELISA. The class given is functional, cell-based. The settings on record: dose 0.1-5 µM, time 36.0 hrs, DDE = dose-dependent effect.
Assay [13] deals with Mus musculus. Kind of assay: Antiinflammatory activity in carrageenan-induced acute arthritis ICR mouse assessed as downregulation of IL-2 secretion in plasma measured at 10 to 20 mg/kg, po for 10 days followed by carrageenan stimulation and measured after 6 hrs by ELISA. The settings on record: dose 10-20 mg/kg, time 10.0 day, DDE = dose-dependent effect. The assay is classed as functional, organism-based.

Assay [14] relates to RAW264.7. Nature of the assay: Antiinflammatory activity in LPS induced mouse RAW264.7 cells assessed as downregulation of IL-4 secretion at 0.1 to 5 uM incubated for 12 hrs followed by LPS stimulation and measured after 24 hrs by ELISA. The assay is classed as functional, cell-based. To be noted: dose 0.1-5 µM, time 36.0 hrs, DDE = dose-dependent effect.
For assay [15], the system named is Mus musculus. Kind of assay: Antiinflammatory activity in carrageenan-induced acute arthritis ICR mouse assessed as downregulation of IL-5 secretion in plasma measured at 10 to 20 mg/kg, po for 10 days followed by carrageenan stimulation and measured after 6 hrs by ELISA. The class given is functional, organism-based. To be noted: dose 10-20 mg/kg, time 10.0 day, DDE = dose-dependent effect.

pIC50: −log10 of the molar value. The source made the active and inactive calls. The rule behind the calls is not given here.

Consider `C[C@H](O)[C@H](C)C(=O)c1c(O)c2c(c3c1OC(=O)C[C@H]3c1ccccc1)OC(C)(C)C=C2`, for which the CC50 in [1] was 517 µM. For the same molecule, in assay [2], the pIC50 is 5.03.
On to `CCC[C@@H](CC(=O)OC)c1c(O)c2c(c3c1OC(C)(C)C=C3)O[C@@H](C)[C@H](C)C2=O`, for which the CC50 in assay [1] amounted to 698 µM. In addition, the pIC50 in [2] was 5.54.
For `CCCC[C@H](CC(=O)OC)c1c2c(c(O)c3c1O[C@@H](C)[C@H](C)C3=O)C=CC(C)(C)O2` the same measures were 574 µM and 5.37.
As for `C[C@@H]1C(=O)c2c(O)c([C@@H](CC(=O)O)c3ccccc3)c3c(c2O[C@@H]1C)C=CC(C)(C)O3` (single isomer, unassigned), the CC50 in assay [1] came to 583 µM. The pIC50 in [2] was 4.95.
For the molecule `COC(=O)C[C@@H](c1ccccc1)c1c2c(c(O)c3c1O[C@@H](C)[C@H](C)C3=O)C=CC(C)(C)O2`, the CC50 in assay [1] came to 594 µM. For the same molecule, the pIC50 in assay [2] was 4.90.
With `CCCC(CC(=O)OC)c1c2c(c(O)c3c1O[C@H](C)[C@@H](C)C3=O)C=CC(C)(C)O2` (stereo partly drawn), the CC50 in [1] was found to be 649 µM. The pIC50 in assay [2] was 5.29.
In the case of `CNC(=N)NCCC[C@H](N)C(=O)O` [TILARGININE ACETATE], the half-maximal cytotoxic concentration (CC50) in assay [1] was found to be 214 µM. The pIC50 in [2] is 4.69.
Consider `C[C@H]1Oc2c(c(O)c3c(c2[C@@H](CC(=O)O)c2ccccc2)OC(C)(C)C=C3)C(=O)[C@@H]1C`, for which the CC50 in [1] came to 524 µM. The pIC50 in assay [2] is 4.90.
Regarding `C[C@@H]1Oc2c3c(c([C@@H](CC(=O)O)c4ccccc4)c(O)c2C(=O)[C@@]1(C)O)OC(C)(C)C=C3`, the CC50 in assay [1] amounted to 588 µM. Besides, in assay [2], the pIC50 is 5.08.
Consider `CC/C=C\C[C@H](CC(=O)O)c1c2c(c(O)c3c1O[C@@H](C)[C@H](C)C3=O)C=CC(C)(C)O2`, for which the CC50 in assay [1] was found to be 550 µM. For the same molecule, in assay [2], the pIC50 was 4.73.
As for `CCCC1CC(=O)Oc2c(C(=O)[C@H](C)[C@H](C)O)c(O)c3c(c21)OC(C)(C)C=C3` (stereo partly drawn), the CC50 in assay [1] was 552 µM. The pIC50 in assay [2] was 5.07.
`C[C@@H]1Oc2c(c(O)c3c(c2[C@@H](CC(=O)O)c2ccccc2)OC(C)(C)C=C3)C(=O)[C@H]1C`: the CC50 in assay [1] was 569 µM. Also, the pIC50 in assay [2] was 4.86.
`CCCCC[C@H](CC(=O)OC)c1c(O)c2c(c3c1OC(C)(C)C=C3)O[C@H](C)[C@H](C)C2=O`: the outcome in assay [3] and in assay [6] was Active. Moreover, the Activity entry in [4], in [5], in [7], in assay [8], in [9] and in assay [12] was “Dde” in each case. Further, the Activity result in assay [13], in assay [14] and in assay [15] was “Dde” each time. Also, the Ratio came to 0.74 in [10] and 0.89 in assay [11]. The CC50 in [1] is 660 µM. In assay [2], the pIC50 is 6.04.
For the molecule `CCCC(CC(=O)O)c1c2c(c(O)c3c1O[C@H](C)[C@@H](C)C3=O)C=CC(C)(C)O2` (stereo partly drawn), the half-maximal cytotoxic concentration (CC50) in assay [1] was found to be 663 µM. Further, in assay [2], the pIC50 was 5.07.
On to `C[C@H](C(=O)c1c(O)c2c(c3c1OC(=O)C[C@H]3c1ccccc1)OC(C)(C)C=C2)[C@@H](C)O`, for which the CC50 in assay [1] was 507 µM. In addition, the pIC50 in [2] is 5.00.
For `COC(=O)C[C@@H](c1ccccc1)c1c(O)c2c(c3c1OC(C)(C)C=C3)O[C@H](C)[C@H](C)C2=O` the same measures were 601 µM and 4.95.
For `CCCCCC(CC(=O)OC)c1c2c(c(O)c3c1O[C@H](C)[C@@H](C)C3=O)C=CC(C)(C)O2` (stereo partly drawn), the CC50 in [1] is 687 µM. Besides, in assay [2], the pIC50 is 5.39.
In the case of `CCCCC[C@H](CC(=O)O)c1c(O)c2c(c3c1OC(C)(C)C=C3)O[C@H](C)[C@H](C)C2=O`, in assay [1], the CC50 was determined as 636 µM. In assay [2], the pIC50 was 5.29.
As for `CCCCCC(CC(=O)O)c1c2c(c(O)c3c1O[C@H](C)[C@@H](C)C3=O)C=CC(C)(C)O2` (stereo partly drawn), the CC50 in [1] is 668 µM. The pIC50 in assay [2] is 5.16.
As to `CCCCC(CC(=O)O)c1c2c(c(O)c3c1O[C@H](C)[C@@H](C)C3=O)C=CC(C)(C)O2` (stereo partly drawn), in [1], the CC50 came out at 654 µM. Also, the pIC50 in [2] was 5.13.
